Laboratory results taken from patent US6436971B2, “Use of PDE 4-specific inhibitors to reduce the severity of a bacterial infection after a respiratory viral infection” (SmithKline Beecham Corporation, priority 2000, dated 2002).

System: S. pneumoniae (strain #0100993)
Assay: Sub-lethal influenza infection followed by S. pneumoniae co-infection, survival (LD50) after PDE 4 inhibitor pretreatment
Assay type: in vivo, mice

Structure (SMILES): COc1ccc([C@]2(C#N)CC[C@@H](C(=O)O)CC2)cc1OC1CCCC1 [Ariflo, cis-4-cyano-4-[3-(cyclopentyloxy)-4-methoxyphenyl]cyclohexane-1-carboxylic acid]
- LD50 of S. pneumoniae in treated mice (10 mg/kg orally once daily on days 0 to 9, S. pneumoniae challenge IN on day 9, control diluent LD50 72): 252 cfu/mouse
- LD50 of S. pneumoniae in treated mice (30 mg/kg orally once daily on days 0 to 9, S. pneumoniae challenge IN on day 9, control diluent LD50 72): 221 cfu/mouse
